The values that follow come from patent publication US20020102533A1, “Hepatitis C protease exosite for inhibit or design” (priority 2000, published 2002).

“Also recorded” adds a separate entry of the source. Where a SMILES comes first, the peptide text is derived from it. [ ]: non-standard residue; d: D form. Dip = N[C@H](C(=O)O)C(c1ccccc1)c1ccccc1; Cha = N[C@@H](CC1CCCCC1)C(=O)O

Assay [1] deals with T1, HCV NS3 protease, genotype 1a (Hepatitis C virus genotype 1a, UniProt P26664).
T1 construct: NS3 protease catalytic domain (amino acids 1 to 192); MGAQH expression leader (5 aa), or alternatively the 15 aa His tag […]; made in house; host or cells: E. coli BL21 (DE3)
Format: biochemical. As to the method: (§1) Endpoint HPLC based HCV protease assay: HCV protease (5 nM) was incubated in 50 mM Tris pH 7.5, 0.1% maltoside, 5 mM DTT and appropriate amounts of glycerol, NS4A peptide, and substrate. Routine assays were 100 μl in volume containing 15% or 50% glycerol, 5.0 μM NS4A peptide and 5.0 μM substrate. Reactions were run at room temperature (˜22° C.) and quenched by the addition of 4 μl of 10% TFA before 10% of the substrate was consumed. Incubation times were 20 minutes for the ester substrate (Peptide Substrate A) and 80 minutes for the P6-P7′ amide substrate (Peptide Substrate B). […] Incubation times were 90 min. Samples, 50 μl, were injected onto an Hewlett Packard 1090 Liquid Chromatograph containing a Dynamax-60A C18 column. The column was eluted with a linear gradient from 10% acetonitrile to 45% acetonitrile in water. All solvents contained 0.1% TFA. A flow rate of 1 ml/min was used. […] The product peaks were detected by fluorescence excitation at 350 nm and emission at 500 nm.
Footnote a for Table 1 references the assay condiditions: 1) Substrate A=P6-P3′, HCV protease (4.0 nM) was incubated with various concentrations of truncated analogs of Q9692 in 50 mM Tris buffer, pH 7.0, 15% glycerol, 0.1% maltoside, 5 mM DTT and 10 μM NS4A peptide in a 96-well microtiter plate at room temperature. After 15 minutes catalysis was initiated by the addition of Ac-D-E-D(EDANS)-E-E-Abuψ[COO]-A-S-K(DABCYL)—NH2 (final concentration 5.0 μM in a total reaction volume of 200 μl). Enzymatic activity was monitored by measuring the increase in fluorescence with time on a Perkin Elmer LS50B luminescence spectrometer (excitation 350 nm, emission 500 nm, both slits 10 nm). […] Assays were 100 μl in volume, reactions were run at room temperature (˜22 C) for 80 minutes (<10% of the substrate was consumed). The addition of 4 μl of 10% TFA quenched the reactions. Quantitation of hydrolysis products was determined by measuring fluorescent peak areas following HPLC. Products were detected by excitation at 350 nm and measuring emission at 500 nm. Aliquots (50 μl) of quenched enzymatic reactions were injected on an Hewlett Packard 1090 HPLC equipped with a ¼ inch Dynamex 60A C18 column. A linear gradient from 10% acetonitrile:H2O to 45% acetonitrile:H2O was run over a period of 15 min at a flow rate of 1.0 ml/min. All solvents contained 0.1% TFA.
Comparison of the effects of Q9692 on the hydrolysis of a P6-P3′ ester substrate (FIG. 2A) and a P6-P7′ substrate (FIG. 2B) and P6-P3′ amide substrate (FIG. 2C) were determined. For substrates A and B1 Concentrations of Q9692 are 0 (circles), 1 μM (squares), 2 μM (diamonds) and 4 μM (triangles). Assay conditions: HCV protease (5 nM) was incubated in 50 mM Tris buffer at pH 7.0, 15% glycerol, 0.1% maltoside, 5 mM DTT, 10 μM NS4A peptide, and specified concentration of substrate. Assays were 100 μl in volume and reactions were run at room temperature (22 C) and quenched by the addition of 4 μl of 10% TFA before 10% of the substrate was consumed. Incubation times were 20 minutes for the ester substrate and 80 minutes for the amide substrate. Hydrolysis products were quantitated by measuring fluorescent peak areas following HPLC and detection by excitation at 350 nm and measuring emission at 500 nm. Aliquots (50 μl) of quenched enzymatic reactions were injected on an Hewlett Packard 1090 HPLC equipped with a ¼ inch Dynamex 60A C18 column.

Assay [2] addresses T1, HCV NS3 protease, genotype 1a. It counts as biochemical. The conditions noted are these: P6-P3′ amide substrate. Here is the method: as §1
Comparison of the effects of Q9692 on the hydrolysis of a P6-P3′ ester substrate (FIG. 2A) and a P6-P7′ substrate (FIG. 2B) and P6-P3′ amide substrate (FIG. 2C) were determined. […] Hydrolysis products were quantitated by measuring fluorescent peak areas following HPLC and detection by excitation at 350 nm and measuring emission at 500 nm. […]

The target of the next assay is T2, HCV protease (NS3) (Hepatitis C virus genotype 1a, UniProt P26664).
T2 construct: NS3 protease catalytic domain (amino acids 1 to 192); MGAQH expression leader (5 aa), or alternatively the 15 aa His tag MRGSHHHHHHMGAQH; made in house; host or cells: E. coli BL21 (DE3)
Format: binding. Here is the method: Intrinsic fluorescence studies: Assays were conducted in 0.5 ml fluorescent cuvettes (0.4 ml total volume). […] Fluorescence spectra were obtained by exiting at 280 nm (10 nm slit) and scanning the emission profile from 300 to 400 nm (10 nm slit) at 1 nm s^−1.
Fluorescence spectrum of HCV protease (0.45 μM) in 50 mM Tris buffer, pH 7.0, containing 15% glycerol, and 0.10% maltoside were measured over a range of 300-400 nm using an excitation wavelength of 280 nm. Both excitation and emission slit widths were 10 nm and the scan rate was 1.0 nm sec^−1.

A further assay deals with T3, HCV protease 2A (Hepatitis C virus genotype 2a, UniProt P26660).
T3 construct: the catalytic domains of types 1b, 1J and 2a have also been examined
The assay is described as follows: HCV protease type 2a, 9-mer substrate. It counts as biochemical. The source says: It is understood that other forms of HCV protease may be used in an assay for the determination of inhibitors. The present invention has disclosed the 1A form of HCV protease, however, the catalytic domains of types 1b, 1J and 2a have also been examined, as well as, the full-length version of form 1b. Evidence for the exosite exists in each case. Activation by Q9692 follows the trend of activation by NS4a. Forms of the enzyme that are more sensitive to NS4a display greater stimulation by Q9692 than forms that are less sensitive. In rank order sensitivity is 1J, 1B, 1A, and 2A. The catalytic activity of 2A toward the 9-mer substrate is enhanced by only 1.5-fold at 4 μM Q9692 and becomes inhibited by Q9692 at concentrations greater than 20 μM. […] Use of alternative forms of the HCV protease is relevent to development of an inexpensive and easy continous assay.

The next assay deals with HCV protease (Hepatitis C virus genotype 1b, UniProt P26663). The conditions noted are these: read-out: inhibitor of HCV protease (potency); 13 residue substrate spanning P6-P7′; cited from earlier work.

For the compound `CC(=O)N[C@@H](CC(=O)O)C(=O)N[C@@H](CCC(=O)O)C(=O)N[C@H](C(=O)N[C@@H](CCC(=O)O)C(=O)N[C@@H](CC1CCCCC1)C(=O)N[C@@H](CS)C(=O)O)C(c1ccccc1)c1ccccc1` [Q9692, Ac-Asp-Glu-Dpa-Glu-Cha-Cys—OH] (Ac-DE[Dip]E[Cha]C-OH), the “Dixon plots of 1/V versus Q9717 concentration” value in assay [1] (5 μM substrate spanning P6-P7′) is listed as “intersecting lines”. Also, the mode of action entry in assay [1] (P6-P7′ substrate, double reciprocal plots) is given as “competitive inhibitor”. For the same compound, the “(S = P6-P7′) Inhibition (+) / Activation (−)” value in assay [1] (substrate B) is listed as “+”. In addition, the inhibition pattern result in assay [2] is recorded as “mixed inhibition”. The “further increase in intrinsic fluorescence” value at HCV protease (NS3) (5.0 μM added after 12.5 μM NS4a) stood at 70%. Further, the “effect on fluorescence spectrum” value at HCV protease (NS3) (in the absence of NS4a) was “little effect”. On HCV protease (NS3) (in the presence of NS4a), the “effect on intrinsic fluorescence” value is listed as “near doubling of intrinsic fluorescence; also recorded: nearly doubles the intrinsic fluorescence; also recorded: large increase in fluorescence”. Besides, at HCV protease 2A, the “concentrations at which enzyme becomes inhibited” value is “greater than 20 μM”. Also, at HCV protease 2A (4 μM Q9692), the “enhancement of catalytic activity” value is 1.5 fold. Also, the Ki at HCV protease is 50 nM.
